Test results: ChEMBL document CHEMBL3507680, “University of Dundee, Gates Library screen for HepG2 cell viability”

Experiment: Human HepG2 cell viability assay in 384 well format
Assay type: toxicity, cell-based
Set-up: dose 125 nL, time 70.5 hour; cytotoxicity at 70.5 h: concentration not given beside the values
Settings: HepG2 cells, read-out: Inhibition

| SMILES | cytotoxicity at 70.5 h [%] |
| --- | --- |
| Cc1ccc(NC(=O)N(C)C)c(C(=O)OCC(=O)NC2CCCC2)c1 | -0.892 |
| Cc1ccc(NC(=O)N(C)C)c(C(=O)OCC(=O)NC(C)C(C)C)c1 (stereo not given) | 26.9 |
| Cc1nc(-c2ccc(S(=O)(=O)N3CCSCC3)cc2)co1 | -5.93 |
| CN(Cc1c(F)cccc1Cl)C(=O)c1cnn(CCN2CCOCC2)c1 | -12.6 |
| COCc1nc(C(=O)NS(=O)(=O)c2ccc(F)c(F)c2)cs1 | -6.1 |
| Cc1ccc(CN2CCOCC2)cc1NCc1ccsc1 | -13.9 |
| Cc1nc(-c2ccc(S(=O)(=O)N3CCC=C(F)C3)cc2)co1 | -9.72 |
| COC(=O)CN(C(=O)c1ccc(Cl)cn1)c1cccc(F)c1 | -0.717 |
| CC(C)(C)OC(=O)NCCC(=O)N(CCC#N)Cc1ccco1 | -0.853 |
| COC(=O)CN(C(=O)c1ccc(Cl)o1)c1cccc(F)c1 | -11.3 |
| CCc1noc(CN(C)Cc2cc(Br)ccc2OC)n1 | -5.46 |
| COCCC(=O)N(CCC#N)c1ccc2c(c1)OCCO2 | -0.557 |
| NC(=O)c1cnn2c1NCC(CNCC1(c3ccccc3)CCC1)C2 (stereo not given) | 10.4 |
| N#Cc1ccc(CN2CCOCC2)cc1 | 2.27 |
| CC(C)C(C)N(C)C(=O)COc1ccccc1C#N (stereo not given) | 1.38 |
| CC(Oc1cc(Cl)cc(Cl)c1)C(=O)NCCC(=O)N(C)C (stereo not given) | -6.44 |
| CC(CNC(=O)OC(C)(C)C)N(C)C(=O)COc1ccccc1C#N (stereo not given) | -12.1 |
| Cc1ncc2c(n1)CN(c1ncnc3[nH]ccc13)CC2 | 1.91 |
| Cc1ccc(N(CCC#N)C(=O)CCc2cccnc2)cc1C | -5.18 |
| Cc1nc(CCCNC(=O)Nc2cc(F)cc(F)c2)n[nH]1 | -11.9 |

| SMILES | cytotoxicity at 70.5 h [%] |
| --- | --- |
| Cc1nc(C)c(S(=O)(=O)NC(=O)c2cccs2)s1 | -4.64 |
| Cc1noc(C)c1CNC(=O)Nc1ccc(N2CCSCC2)cc1 | -9.93 |
| CC(Oc1cc(Cl)cc(Cl)c1)C(=O)NCCOCC(N)=O (stereo not given) | 18 |
| CC(c1ccco1)N(C(=O)Cn1nc2n(c1=O)CCCCC2)C1CC1 (stereo not given) | 18 |
| Cc1ocnc1CNC(=O)Nc1ccc(N2CCOC(C)C2)cc1 (stereo not given) | -17.7 |
| CC(C)CC(CO)NS(=O)(=O)Cc1ccon1 (stereo not given) | -6.44 |
| Cc1nc(CCCNC(=O)c2cc(F)ccc2O)n[nH]1 | -9.81 |
| CCc1ncnc(N2CCOCC2C(N)=O)c1F (stereo not given) | -5.74 |
| CC(c1ccncc1)N(C)C(=O)NCCOc1ccc(C#N)cc1 (stereo not given) | 16.9 |
| Cc1cnc(C(=O)N2CCOCC2C)cn1 (stereo not given) | -16.2 |
| N#Cc1ccc(CN2CCC(CN3CCOCC3)C2)cc1 (stereo not given) | -5.35 |
| CC(c1ccco1)N(C)C(=O)NCCOc1ccc(C#N)cc1 (stereo not given) | -8.15 |
| COc1c(C(=O)NC(C)CC(=O)c2cccs2)c(C)nn1C (stereo not given) | -0.066 |
| Cc1cnc(C(=O)N2CCOCC2c2ccccc2)cn1 (stereo not given) | -10.2 |
| N#CC1(NC(=O)c2c(F)ccc(OC(F)F)c2F)CCOCC1 | -9.56 |
| CCC(C)NC(=O)Nc1cccc(OC)c1 (stereo not given) | -5.26 |
| Cc1csc(CCNC(=O)N2CCC(C(N)=O)CC2)n1 | -16.7 |
| O=C(CCc1nc(-c2ccsc2)no1)NCC1CCN(C2CC2)C1 (stereo not given) | 7.83 |
| CN(C)C(=O)Cn1cnc2c(Br)cccc2c1=O | -10.4 |
| Cc1nnc(CN(Cc2ccco2)Cc2cccc3c2OCO3)n1C | -6.18 |

| SMILES | cytotoxicity at 70.5 h [%] |
| --- | --- |
| CN(CCC#N)C(=O)Cn1cnc2c(Br)cccc2c1=O | -1.58 |
| COc1ccc(-c2cnc(CN(CC(N)=O)C3CCCC3)o2)cc1 | -11.2 |
| NC(=O)CN(Cc1ncc(-c2ccc(Cl)cc2)o1)C1CCCC1 | -7.75 |
| Nc1nccnc1C(=O)NC1CCCN(Cc2c(F)cccc2F)C1 (stereo not given) | -16.3 |
| CCOc1ccccc1C(=O)NCc1nncn1C1CC1 | 3.5 |
| CCNC(=O)C1CCN(Cc2ccccc2OCC(F)(F)F)CC1 | -4.11 |
| COc1ccc(C)nc1NC(=O)Cc1c(C)nn(C)c1C | -0.279 |
| NC(=O)NC1CCN(Cc2ccccc2OCC(F)(F)F)CC1 | -4.28 |
| COc1ccc(C)c(NC(=O)NCc2ncnn2C)c1 | 3.43 |
| O=C(NCc1nncn1C1CC1)c1cccnc1Oc1ccccc1 | -0.0708 |
| N#CC1(NC(=O)c2ccc(F)cc2OC(F)F)CCOCC1 | -10.6 |
| COc1ccc(Br)c(NC(=O)NCc2ncnn2C)c1 | -9.33 |
| COc1ncc(NCc2ccsc2)cc1C(N)=O | 3.63 |
| COc1ncc(NCc2cccc(C#N)c2)cc1C(N)=O | -1.66 |
| O=C(NCc1nncn1C1CC1)c1ccccc1OCC1CC1 | -5.93 |
| NCC(CO)Cc1ccc(C(F)(F)F)cc1 (stereo not given) | 4.66 |
| COC(=O)c1ccc(N(C(=O)c2cc(Cl)ccn2)C(C)C)c(C)c1 | -2.71 |
| Cc1cccc(NCCOc2cccc(C#N)c2)c1C(N)=O | 16.4 |
| CC(CO)NC(=O)Nc1ccc(COC2CCCC2)cc1 (stereo not given) | -2.03 |
| Cc1nn(C)c(C)c1OCC(=O)NCC(O)Cc1ccccc1 (stereo not given) | 1.56 |
